In US20210177862A1, “METHOD FOR TREATING NEUROCOGNITIVE DYSFUNCTION” (Tonix Pharma Holdings Limited, priority 2008, published 2021):

How the values were obtained:
[1] = tested on: corticosteroid-induced cognitive impairment; assay: Case report (Example 1): tianeptine given to a patient with cognitive side effects from prednisone therapy; assay type: in vivo, human
Source text: (§1) Patient was diagnosed with a medical condition known as pulmonary sarcoidosis in which immune cells (lymphocytes and macrophages) are abnormally activated and accumulate in the lung, progressively destroying the architecture and functional capacity of lung tissue. Treatment is necessary to prevent progression of the disease and loss of more pulmonary functional capacity. Standard treatment is with systemic corticosteroids due to the capacity of corticosteroids for suppressing immune function. Patient was started on prednisone 40 mg by mouth each morning, with a plan to taper the dose by 5 mg every two weeks until at 25 mg a day. After three months the level of response to corticosteroids would be assessed by repeat pulmonary function tests and chest x-ray. If the disease process was responsive to corticosteroids, the treatment would be continued to finish a full year on about 25 mg a day.
The memory disturbance was profound and sharply contrasted with patient's normal memory function. The “foggy” feeling was present all day long, and was similar to the feeling of having taken a sedating antihistamine like diphenhydramine (Benadryl). Patient found they could only concentrate with much effort, with rapidly developing mental fatigue preventing sustained efforts. Examples of memory impairment resulting from the prednisone were much like some of the memory disturbance seen in Alzheimer's dementia in which there is impairment in the process of consolidation of short term memories into long term memories, a process known to depend on intact hippocampal function.
Patient began tianeptine (Stablon) at 12.5 mg, one pill in the morning. Four days later, patient increased the dose to 12.5 mg twice a day, finally, two days after the prior increase, patient increased the dose to 25 mg each morning and 12.5 mg each evening. In the first several days taking tianeptine, patient noted the “foggy” feeling had gone away.
Although beginning tianeptine correlated with the rapid improvement in cognitive function, it was uncertain whether the tianeptine was responsible for the improvement.
There was the alternate possibility that patient was simply adjusting to the corticosteroids, with reduction in the cognitive side effects manifesting over the first several weeks after beginning corticosteroids. Nonetheless, patient continued to take the tianeptine. Also, it seemed possible that prednisone at 40 mg a day had been producing worse side effects than the lower doses of 35 mg, 30 mg, and 25 mg a day patient had tapered down to after starting the tianeptine.
Patient stopped tianeptine treatment two months later, tapering the dose over three days. Within about 2-3 days after the final dose of tianeptine, patient experienced the gradual emergence of the same cognitive side effects of the corticosteroids that patient had been experiencing in before initial tianeptine treatment including poor memory, extreme difficulty concentrating and sustaining mental effort, and the general “foggy” feeling once again pervading. This continued up for two weeks when patient restarted tianeptine treatment. […] Patient has continued on tianeptine 25 mg each morning and 12.5 mg each evening since then.

pulmonary sarcoidosis = assay type: in vivo, human; conditions: prednisone tapered from 40 mg to 25 mg a day
Source text: as §1
The memory disturbance was profound and sharply contrasted with patient's normal memory function. The “foggy” feeling was present all day long, and was similar to the feeling of having taken a sedating antihistamine like diphenhydramine (Benadryl). Patient found they could only concentrate with much effort, with rapidly developing mental fatigue preventing sustained efforts. […]

[2] = patient on prednisone, first several days taking tianeptine

SMILES	time frame of effect after initiation of treatment ([1]; mitigation of corticosteroid cognitive side effects) [h]	effect of tianeptine in mitigating the side effects of the corticosteroids ([1]; off/on tianeptine episode, 25 mg each morning and 12.5 mg each evening)	ability to concentrate [1, 2]	episodic memory [1, 2]	"foggy" feeling ([1]; patient on prednisone, first several days taking tianeptine 12.5 mg up to 25 mg morning + 12.5 mg evening, oral)	time after restarting tianeptine to definite improvement ([1]; restart after two weeks off tianeptine, on prednisone) [h]	cognitive function after restarting tianeptine ([1]; three days after restart, on prednisone)	time after final dose of tianeptine to gradual emergence of the same cognitive side effects of the corticosteroids ([1]; tianeptine stopped (tapered over three days), prednisone 25 mg a day continued) [days]	follow-up pulmonary function tests (pulmonary sarcoidosis)
CN1c2ccccc2C(NCCCCCCC(=O)O)c2ccc(Cl)cc2S1(=O)=O (stereo not drawn) [tianeptine, 7-[(3-chloro-6,11-dihydro-6-methyl-dibenzo[c,f][1,2]thiazepin-11-yl)amino] heptanoic acid S,S-dioxide]	24 to 72	large effect	appeared to normalize	significantly improved	had gone away	≤ 24	pretty much returned to normal baseline	2 to 3	–
C[C@]12C=CC(=O)C=C1CC[C@@H]1[C@@H]2C(=O)C[C@@]2(C)[C@H]1CC[C@]2(O)C(=O)CO [prednisone]	–	–	–	–	–	–	–	–	indicated improvement
